Experimental data as given in patent US10259808B2 (Genentech, Inc., priority 2015, dated 2019).
pIC50: −log10 of the molar value.

Molecular target: T1, RORc ligand binding domain (Homo sapiens, UniProt P51449)
T1 sequence (P51449 269-508 limits assumed): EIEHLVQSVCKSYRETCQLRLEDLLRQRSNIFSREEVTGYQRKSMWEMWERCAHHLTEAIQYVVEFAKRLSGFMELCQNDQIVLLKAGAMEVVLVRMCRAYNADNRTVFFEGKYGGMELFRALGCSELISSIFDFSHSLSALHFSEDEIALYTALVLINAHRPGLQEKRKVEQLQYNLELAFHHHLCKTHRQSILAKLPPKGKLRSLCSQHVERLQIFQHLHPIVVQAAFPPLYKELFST
Experiment: In vitro RORc ligand binding assay (25-[3H]hydroxycholesterol displacement)

pIC50	Structure (SMILES)
8.57	C[C@H]1CC[C@H](c2ccccc2)S(=O)(=O)N1Cc1cc(F)c(C2(OCc3nnc[nH]3)CC3(COC3)C2)cc1F [Example 122, (3S,6R)-2-[[2,5-difluoro-4-[6-(4H-1,2,4-triazol-3-ylmethoxy)-2-oxaspiro[3.3]heptan-6-yl]phenyl]methyl]-3-methyl-6-phenyl-thiazinane 1,1-dioxide]
8.74	C[C@H]1CC[C@H](c2ccccc2)S(=O)(=O)N1Cc1cc(F)c([C@]2(c3n[nH]c(=O)o3)C[C@H](O)C2)cc1F [Example 123, trans-5-[1-[2,5-difluoro-4-[[(3S,6R)-3-methyl-1,1-dioxo-6-phenyl-thiazinan-2-yl]methyl]phenyl]-3-hydroxy-cyclobutyl]-3H-1,3,4-oxadiazol-2-one]
8.68	C[C@H]1CC[C@H](c2ccccc2)S(=O)(=O)N1Cc1cc(F)c([C@]2(c3n[nH]c(=O)o3)C[C@@H](O)C2)cc1F [Example 124, cis-5-[1-[2,5-difluoro-4-[[(3S,6R)-3-methyl-1,1-dioxo-6-phenyl-thiazinan-2-yl]methyl]phenyl]-3-hydroxy-cyclobutyl]-3H-1,3,4-oxadiazol-2-one]
7.25	C[C@H]1CC[C@H](c2ccccc2)S(=O)(=O)N1Cc1cc(F)c(C2(NCC3COC(=O)N3)COC2)cc1F (stereo partly drawn) [Example 125, 4-[[[3-[2,5-difluoro-4-[[(3S,6R)-3-methyl-1,1-dioxo-6-phenyl-thiazinan-2-yl]methyl]phenyl]oxetan-3-yl]amino]methyl]oxazolidin-2-one]
8.57	C[C@H]1CC[C@H](c2ccccc2)S(=O)(=O)N1Cc1cc(F)c(C2(c3n[nH]c(=O)o3)CC(F)(F)C2)cc1F [Example 126, 5-[1-[2,5-difluoro-4-[[(3S,6R)-3-methyl-1,1-dioxo-6-phenyl-thiazinan-2-yl]methyl]phenyl]-3,3-difluoro-cyclobutyl]-3H-1,3,4-oxadiazol-2-one]
8.14	C[C@H]1CC[C@H](c2ccccc2)S(=O)(=O)N1Cc1cc(F)c([C@]2(c3n[nH]c(=O)o3)C[C@@](C)(O)C2)cc1F [Example 127, cis-5-[1-[2,5-difluoro-4-[[(3S,6R)-3-methyl-1,1-dioxo-6-phenyl-thiazinan-2-yl]methyl]phenyl]-3-hydroxy-3-methyl-cyclobutyl]-3H-1,3,4-oxadiazol-2-one]
8.47	C[C@H]1CC[C@H](c2ccccc2)S(=O)(=O)N1Cc1cc(F)c([C@]2(c3n[nH]c(=O)o3)C[C@](C)(O)C2)cc1F [Example 128, trans-5-[1-[2,5-difluoro-4-[[(3S,6R)-3-methyl-1,1-dioxo-6-phenyl-thiazinan-2-yl]methyl]phenyl]-3-hydroxy-3-methyl-cyclobutyl]-3H-1,3,4-oxadiazol-2-one]
7.89	C[C@H]1CC[C@H](c2ccccc2)S(=O)(=O)N1Cc1cc(F)c(C2(c3nnc(N)o3)CC(F)(F)C2)cc1F [Example 132, 5-[1-[2,5-difluoro-4-[[(3S,6R)-3-methyl-1,1-dioxo-6-phenyl-thiazinan-2-yl]methyl]phenyl]-3,3-difluoro-cyclobutyl]-1,3,4-oxadiazol-2-amine]
6.70	Cc1nn(C)cc1CNC1(c2cc(F)c(CN3[C@@H](C)CC[C@H](c4ccccc4)S3(=O)=O)cc2F)COC1 [Example 135, 3-[2,5-difluoro-4-[[(3S,6R)-3-methyl-1,1-dioxo-6-phenyl-thiazinan-2-yl]methyl]phenyl]-N-[(1,3-dimethylpyrazol-4-yl)methyl]oxetan-3-amine]
7.62	C[C@H]1CC[C@H](c2ccccc2)S(=O)(=O)N1Cc1cc(F)c(C2(NCC3CCOC3)COC2)cc1F (stereo partly drawn) [Example 136, 3-[2,5-difluoro-4-[[(3S,6R)-3-methyl-1,1-dioxo-6-phenyl-thiazinan-2-yl]methyl]phenyl]-N-(tetrahydrofuran-3-ylmethyl)oxetan-3-amine]
7.05	C[C@H]1CC[C@H](c2ccccc2)S(=O)(=O)N1Cc1cc(F)c(C2(NCc3ccnn3C)COC2)cc1F [Example 137, 3-[2,5-difluoro-4-[[(3S,6R)-3-methyl-1,1-dioxo-6-phenyl-thiazinan-2-yl]methyl]phenyl]-N-[(2-methylpyrazol-3-yl)methyl]oxetan-3-amine]
7.16	C[C@H]1CC[C@H](c2ccccc2)S(=O)(=O)N1Cc1cc(F)c(C2(NCc3cnn(C)c3)COC2)cc1F [Example 138, 3-[2,5-difluoro-4-[[(3S,6R)-3-methyl-1,1-dioxo-6-phenyl-thiazinan-2-yl]methyl]phenyl]-N-[(1-methylpyrazol-4-yl)methyl]oxetan-3-amine]
8.41	C[C@H]1CC[C@H](c2ccccc2)S(=O)(=O)N1Cc1cc(F)c([C@]2(c3n[nH]c(=O)o3)C[C@](C)(F)C2)cc1F [Example 139, trans 5-[1-[2,5-difluoro-4-[[(3S,6R)-3-methyl-1,1-dioxo-6-phenyl-thiazinan-2-yl]methyl]phenyl]-3-fluoro-3-methyl-cyclobutyl]-3H-1,3,4-oxadiazol-2-one]
7.89	C[C@H]1CC[C@H](c2ccccc2)S(=O)(=O)N1Cc1cc(F)c(C2(c3nn(C)c(=O)o3)CCOCC2)cc1F [Example 140, 5-[4-[2,5-difluoro-4-[[(3S,6R)-3-methyl-1,1-dioxo-6-phenyl-thiazinan-2-yl]methyl]phenyl]tetrahydropyran-4-yl]-3-methyl-1,3,4-oxadiazol-2-one]
8.04	C[C@H]1CC[C@H](c2ccccc2)S(=O)(=O)N1Cc1cc(F)c([C@]2(c3n[nH]c(=O)o3)C[C@](O)(C3CC3)C2)cc1F [Example 141, cis 5-[3-cyclopropyl-1-[2,5-difluoro-4-[[(3S,6R)-3-methyl-1,1-dioxo-6-phenyl-thiazinan-2-yl]methyl]phenyl]-3-hydroxy-cyclobutyl]-3H-1,3,4-oxadiazol-2-one]
8.37	C[C@H]1CC[C@H](c2ccccc2)S(=O)(=O)N1Cc1cc(F)c([C@]2(c3n[nH]c(=O)o3)C[C@@](O)(C3CC3)C2)cc1F [Example 142, trans 5-[3-cyclopropyl-1-[2,5-difluoro-4-[[(3S,6R)-3-methyl-1,1-dioxo-6-phenyl-thiazinan-2-yl]methyl]phenyl]-3-hydroxy-cyclobutyl]-3H-1,3,4-oxadiazol-2-one]
6.82	C[C@H]1CC[C@@H](c2ccccc2)S(=O)(=O)N1Cc1cc(F)c(C2(c3n[nH]c(=O)o3)CCC2)cc1F [Example 143, 5-[1-[2,5-difluoro-4-[[(3S,6S)-3-methyl-1,1-dioxo-6-phenyl-thiazinan-2-yl]methyl]phenyl]cyclobutyl]-3H-1,3,4-oxadiazol-2-one]
8.03	C[C@H]1CC[C@H](c2ccccc2)S(=O)(=O)N1Cc1cc(F)c(C2(c3n[nH]c(=O)o3)CCC2)cc1F [Example 144, 5-[1-[2,5-difluoro-4-[[(3S,6R)-3-methyl-1,1-dioxo-6-phenyl-thiazinan-2-yl]methyl]phenyl]cyclobutyl]-3H-1,3,4-oxadiazol-2-one]
8.15	C[C@H]1CC[C@H](c2ccccc2)S(=O)(=O)N1Cc1cc(F)c([C@]2(c3nnc[nH]3)C[C@](C)(O)C2)cc1F [Example 145, trans 3-[2,5-difluoro-4-[[(3S,6R)-3-methyl-1,1-dioxo-6-phenyl-thiazinan-2-yl]methyl]phenyl]-1-methyl-3-(4H-1,2,4-triazol-3-yl)cyclobutanol]
